pIC50: −log10 of the molar value.

For this experiment, the target named is T1, hBPGM (Homo sapiens, UniProt P07738).
T1 sequence (P07738 1-259): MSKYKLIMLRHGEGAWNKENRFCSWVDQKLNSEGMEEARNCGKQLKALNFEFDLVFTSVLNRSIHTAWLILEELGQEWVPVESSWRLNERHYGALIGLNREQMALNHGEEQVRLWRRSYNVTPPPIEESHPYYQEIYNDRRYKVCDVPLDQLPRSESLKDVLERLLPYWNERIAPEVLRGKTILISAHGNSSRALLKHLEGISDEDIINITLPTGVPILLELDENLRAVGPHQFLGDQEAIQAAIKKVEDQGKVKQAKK
Description: BPGM synthase assay. To be noted: Table 6; read-out: huBPGM: synthase Enzyme IC50. Type of experiment: biochemical. The protocol:
The following materials were used in this assay: deionized water; Bisphosphoglycerate mutase (BPGM; Standard Buffer: 50 mM Tris, 0.01% Tween 20, pH 7.4); BPGM Reaction Buffer (50 mM Tris, 0.01% Tween 20, 3.23 mM KH2PO4, pH 7.4); dithiothreitol (DTT; Stock solution: 100 mM in Standard Buffer); 384-Well Black Assay Plate (Corning, P/N 3575); DMSO; BPGM Stock Solution (500 nM in BPGM Standard Buffer); Glyceraldehyde 3-phosphate dehydrogenase (GAPDH; Stock Solution: 40 U/mL in 20 mM Tris-HCL Buffer with 20% Glycerol, 1 mM EDTA, 1 mM DTT); Glyceraldehyde 3-phosphate (GAP; Stock Solution: 20 mM in BPGM Standard Buffer); 3-PG Stock Solution (500 μM in BPGM Standard Buffer); Nicotinamide adenine dinucleotide (NAD; Stock Solution: 50 mM in BPGM Standard Buffer); Koningic Acid (1 mM Stock in DMSO); Resazurin Stock Solution (10 mM in DMSO); Diaphorase Stock Solution (40 U/mL in BPGM Standard Buffer); DTT Reaction Buffer (1 mM DTT in BPGM Reaction Buffer); Enzyme Solution (5 nM BPGM, 0.4 U/mL GAPDH in DTT Reaction Buffer); GAPDH Solution (0.4 U/mL GAPDH in DTT Reaction Buffer); Substrate Solution (2 mM NAD, 20 μM 3PG, 800 μM GAP in DTT Reaction Buffer); and Resazurin Solution (5 U/mL Diaphorase, 500 μM Resazurin in BPGM Standard Buffer).
To the assay plate was added Enzyme Solution (20 uL) to columns 2-22 and 24 of the assay plate. To columns 1 and 23 was added GAPDH Solution (20 uL). A separate compound plate was prepared at the desired concentrations and all wells were normalized with 5% DMSO. The compound plate was incubated for 30 minutes at RT. Next, the substrate solution (20 μL) was dispensed to all reaction wells and the plate was incubated for 60 minutes at RT. Koningic acid (1 μL) was added and the plate was incubated for 10 minutes at RT. During this time period, the NADH fluorescence was read at ex: 360/em: 460. Next, Resazurin Solution (10 μL) was added to all reaction wells and the plate was incubated for 30 minutes at RT. The resorufin fluorescence was then read at ex:544/em:590.

Usually pIC50 stands for the IC50 on a negative log10 scale, so that one unit is a factor of ten. Regarding `Cc1nc(COc2ncccn2)sc1-c1ccnc(-c2cc(O)c(C#N)c(F)c2)c1` [Example 24], the negative-log IC50 (pIC50) is 6.60. `Cc1nc(C(=O)N2CCC(O)C2)sc1-c1cccc(-c2cc(F)c3[nH]nnc3c2F)n1` (centres unmarked) [Example 25]: the negative-log IC50 (pIC50) was 5.36.

Take `Cc1nc(CN2CCCC2=O)sc1-c1cccc(-c2cc(F)c3nn[nH]c3c2F)n1` [Example 26]: the pIC50 is 6.96. The same measure for `Cc1nc(CN/C(=N/C#N)N(C)C)sc1-c1cccc(-c2cc(F)c(O)c(F)c2F)n1` [Example 27]: 5.82; for `Cc1nc(CNC(=O)N(C)C)sc1-c1cccc(-c2cc(F)c(O)c(F)c2F)n1` [Example 28]: 5.80. On to `Cc1nc(COC(=O)N2CCC(N)C2)sc1-c1cccc(-c2cc(F)c(O)c(F)c2F)n1` (centres unmarked) [Example 29], for which the pIC50 was 5.24.

Regarding `Cc1nc(NC(=O)OC(C)(C)C)sc1-c1cccc(-c2cc(F)c3[nH]nnc3c2F)n1` [Example 30], the negative-log IC50 (pIC50) was 6.70.

As for `Cc1nc(COC(=O)N2CCC(C)(O)C2)sc1-c1cccc(-c2cc(F)c3[nH]nnc3c2F)n1` (centres unmarked) [Example 31], the negative-log IC50 (pIC50) was 7.46. As for `Cc1nc(COC(=O)N2CCC(N(C)C)C2)sc1-c1cccc(-c2cc(F)c3nn[nH]c3c2F)n1` (centres unmarked) [Example 32], the negative logarithm of the IC50 (pIC50) is 7.12. Take `Cc1nc(COc2ncccn2)sc1-c1csc(-c2cc(F)c(C#N)c(O)c2F)n1` [Example 33]: the negative-log IC50 (pIC50) is 6.60.

Turning to `COCc1nc(C)c(-c2cccc(-c3cc(F)c4nn[nH]c4c3F)n2)s1` [Example 34], the pIC50 was 6.60. The same measure for `Cc1nc(COC(=O)N2CCC(O)C2)sc1-c1cccc(-c2cc(F)c(O)c(F)c2F)n1` (centres unmarked) [Example 35]: 6.22; for `Cc1nc(COC(=O)N(C)CCN(C)C)sc1-c1cccc(-c2cc(F)c(O)c(F)c2F)n1` [Example 36]: 5.89. For the molecule `Cc1nc(C)c(-c2cnn(-c3cc(F)c4[nH]nnc4c3F)c2)s1` [Example 37], the pIC50 was 4.89.

For `Cc1nc(COc2cccnn2)sc1-c1csc(-c2cc(F)c3[nH]nnc3c2F)n1` [Example 38], the negative-log IC50 (pIC50) was 7.44. With `COC1CCN(C(=O)OCc2nc(C)c(-c3cccc(-c4cc(F)c5nn[nH]c5c4F)n3)s2)C1` (centres unmarked) [Example 39], the pIC50 is 7.39. In the case of `COCC1CCCN1C(=O)OCc1nc(C)c(-c2cccc(-c3cc(F)c4nn[nH]c4c3F)n2)s1` (centres unmarked) [Example 40], the negative-log IC50 (pIC50) was 7.36.

Consider `Cc1nc(COc2ccccn2)sc1-c1ccnc(-c2cc(F)c3nn[nH]c3c2F)n1` [Example 41], for which the negative-log IC50 (pIC50) was 7.12.

Take `Cc1nc(C)c(-c2ccn(-c3cc(F)c4[nH]nnc4c3F)n2)s1` [Example 42]: the negative logarithm of the IC50 (pIC50) is 5.39. As to `Cc1nc(CNC(=O)c2cccnn2)sc1-c1nc(-c2cc(F)c3nn[nH]c3c2F)cs1` [Example 43], the pIC50 was 7.85.

With `Cc1nc(COC(=O)N(C)C)sc1-c1nc(-c2cc(F)c3nn[nH]c3c2F)cs1` [Example 44], the pIC50 is 7.60.

In the case of `Cc1nc(CN/C(=N/C#N)N(C)C)sc1-c1cccc(-c2cc(F)c3nn[nH]c3c2F)n1` [Example 45], the pIC50 is 7.32. `Cc1nc(COC(=O)N(C)C)sc1-c1ccn(-c2cc(F)c3[nH]nnc3c2F)n1` [Example 46]: the pIC50 was 6.89.

For `Cc1nc(COC(=O)N2CCC(O)CC2)sc1-c1cccc(-c2cc(F)c3nn[nH]c3c2F)n1` [Example 47], the negative-log IC50 (pIC50) was 7.60. For the molecule `Cc1nc(COCC(=O)N(C)C)sc1-c1nc(-c2cc(F)c3nn[nH]c3c2F)cs1` [Example 48], the pIC50 is 7.51. `Cc1nc(COCC(=O)N(C)C)sc1-c1csc(-c2cc(F)c3[nH]nnc3c2F)n1` [Example 49]: the pIC50 was 7.33. Consider `Cc1nc(COC(C)C(=O)N(C)C)sc1-c1csc(-c2cc(F)c3[nH]nnc3c2F)n1` (centres unmarked) [Example 50], for which the negative logarithm of the IC50 (pIC50) was 7.13. Regarding `Cc1nc(CNc2ncccn2)sc1-c1csc(-c2cc(F)c3[nH]nnc3c2F)n1` [Example 51], the pIC50 was 6.55. With `Cc1nc(CN(C)C)sc1-c1cccc(-c2cc(F)c3nn[nH]c3c2F)n1` [Example 52], the pIC50 was 6.41. Turning to `Cc1nc(CNCC(=O)N(C)C)sc1-c1cccc(-c2cc(F)c3nn[nH]c3c2F)n1` [Example 53], the pIC50 was 6.05.

As for `CC(=O)NCc1nc(C)c(-c2cccc(-c3cc(F)c4nn[nH]c4c3F)n2)s1` [Example 54], the negative-log IC50 (pIC50) was 7.04. Take `Cc1nc(COc2ccccn2)sc1-c1csc(-c2cc(F)c(F)c(O)c2F)n1` [Example 55]: the negative-log IC50 (pIC50) was 6.66. Consider `Cc1nc(CNCC(C)(C)C)sc1-c1cccc(-c2cc(F)c3nn[nH]c3c2F)n1` [Example 56], for which the negative-log IC50 (pIC50) is 6.59.

For the molecule `Cc1nc(COc2ncccn2)sc1-c1ccnc(-c2cc(F)c(O)c(F)c2F)c1` [Example 57], the negative logarithm of the IC50 (pIC50) is 6.54. The same measure for `Cc1nc(COc2ncccn2)sc1-c1ccnc(-c2cc(F)c(O)c(C#N)c2)c1` [Example 58]: 5.72; for `Cc1nc(COC(=O)N2CC(O)C2)sc1-c1cccc(-c2cc(F)c3nn[nH]c3c2F)n1` [Example 59]: 7.70; for `Cc1nc(COC(C)C(=O)N(C)C)sc1-c1cccc(-c2cc(F)c3nn[nH]c3c2F)n1` (centres unmarked) [Example 60]: 7.26. As to `Cc1nc(CNC(=O)N2CCC(O)C2)sc1-c1cccc(-c2cc(F)c3nn[nH]c3c2F)n1` (centres unmarked) [Example 61], the negative-log IC50 (pIC50) was 6.66.

`Cc1nc(COC(=O)N2CCC(O)C2)sc1-c1cccc(-c2cc(F)c3nn[nH]c3c2F)c1` (centres unmarked) [Example 62]: the pIC50 is 6.46. In the case of `CNCc1nc(C)c(-c2cccc(-c3cc(F)c4nn[nH]c4c3F)n2)s1` [Example 63], the pIC50 is 5.85. As for `Cc1nc(COCC(=O)N(C)C)sc1-c1cccc(-c2cc(F)c3nn[nH]c3c2F)n1` [Example 64], the pIC50 is 7.37. For `CC(=O)N(C)Cc1nc(C)c(-c2cccc(-c3cc(F)c4nn[nH]c4c3F)n2)s1` [Example 65], the negative-log IC50 (pIC50) was 6.55. For the molecule `Cc1nc(COc2ncccn2)sc1-c1csc(-c2cc(F)c3[nH]nnc3c2F)n1` [Example 66], the negative logarithm of the IC50 (pIC50) was 7.80. On to `COC(=O)NCc1nc(C)c(-c2csc(-c3cc(F)c4[nH]nnc4c3F)n2)s1` [Example 67], for which the negative logarithm of the IC50 (pIC50) was 7.30. For the molecule `COCc1nc(C)c(-c2cccc(-c3cc(F)c4nn[nH]c4c3F)n2)s1` [Example 68], the negative-log IC50 (pIC50) is 6.70. In the case of `Cc1nc(COc2ncccn2)sc1-c1ccnc(-c2cc(F)c(O)c(C#N)c2)n1` [Example 69], the pIC50 was 7.10. With `Cc1nc(COc2ncccn2)sc1-c1csc(-c2cc(F)c(O)c(F)c2F)n1` [Example 70], the pIC50 was 6.70. The same measure for `Cc1nc(COc2ncccn2)sc1-c1nc(-c2cc(O)c(C#N)c(F)c2)cs1` [Example 71]: 6.52; for `Cc1nc(COc2ncccn2)sc1-c1nc(-c2cc(F)c(O)c(C#N)c2)cs1` [Example 72]: 6.29. The figure for `Cc1nc(COc2ncccn2)sc1-c1cccc(-c2nnn[nH]2)n1` [Example 73] is < 4.60; for `Cc1nc(COc2ncccn2)sc1-c1cccc(-c2cc(O)c(C#N)c(F)c2)n1` [Example 74] it is 6.54; for `Cc1nc(COC(=O)N2CCC(O)C2)sc1-c1csc(-c2cc(F)c3[nH]nnc3c2F)n1` (centres unmarked) [Example 75] it is 6.36. The same measure for `Cc1nc(COCC(=O)N2CCC(O)C2)sc1-c1cccc(-c2cc(F)c3nn[nH]c3c2F)n1` (centres unmarked) [Example 76]: 5.96. Regarding `Cc1nc(COc2cccnn2)sc1-c1nc(-c2cc(F)c(O)c(F)c2F)cs1` [Example 77], the pIC50 is 5.89.

For `Cc1nc(COCC(=O)N2CCC(O)C2)sc1-c1csc(-c2cc(F)c3[nH]nnc3c2F)n1` (centres unmarked) [Example 78], the pIC50 is 5.82. Take `Cc1nc(COC(=O)N2CCC(O)C2)sc1-c1csc(-c2cc(F)c(O)c(F)c2F)n1` (centres unmarked) [Example 79]: the negative logarithm of the IC50 (pIC50) is 5.62. On to `Cc1nc(CNC(=O)N2CCC(O)C2)sc1-c1csc(-c2cc(F)c3[nH]nnc3c2F)n1` (centres unmarked) [Example 80], for which the pIC50 was 5.55. The same measure for `Cc1nc(COc2ccccn2)sc1-c1csc(-c2cc(F)c(OP(=O)(O)O)c(F)c2F)n1` [Example 81]: 5.52; for `Cc1nc(COc2ccccn2)sc1-c1csc(-c2cc(F)c3[nH]nnc3c2F)n1` [Example 82]: 5.44.

The values above are taken from patent US20230348454A1, “COMPOUNDS AS MODULATORS OF BIS-PHOSPHOGLYCERATE MUTASE FOR THE TREATMENT OF SICKLE CELL DISEASE” (Genzyme Corporation, priority 2020, published 2023).
